Reference: patent publication US7223547B2, “Polypeptides having a functional domain of interest and methods of identifying and using same” (Cytogen Corporation, priority 1995, dated 2007)
One block for each molecule: values may come before it. * marks the point of attachment. Biotin = O=C1N[C@H]2[C@H](CS[C@H]2CCCCC(=O)*)N1

Tests used:
[1] = tested on: virus that causes hepatitis B; conditions: at given dosages; cited from earlier work
[2] = patients to whom the drug is administered; cited from earlier work
[3] = biological target: SH3 domain of Abl (Homo sapiens, UniProt P00519); assay: Stated SH3 domain binding of recognition unit
Chain of SH3 domain of Abl (P00519 61-121 limits assumed): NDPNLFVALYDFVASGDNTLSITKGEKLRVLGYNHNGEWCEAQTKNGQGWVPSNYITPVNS

[4] = tested on: SH3 domain of Nck
[5] = biological target: T1, SH3P17, a novel human gene (human, UniProt Q15811 729-1220); assay: plaque-lift screen of human prostate cancer and bone marrow cDNA expression libraries with biotinylated peptide complexed to SA-AP (T12SRC.4 also present in the initial screens)
T1 construct: Fragment encoded by a cDNA clone, with at least four SH3 domains, on plaque-lift filters
T1 sequence: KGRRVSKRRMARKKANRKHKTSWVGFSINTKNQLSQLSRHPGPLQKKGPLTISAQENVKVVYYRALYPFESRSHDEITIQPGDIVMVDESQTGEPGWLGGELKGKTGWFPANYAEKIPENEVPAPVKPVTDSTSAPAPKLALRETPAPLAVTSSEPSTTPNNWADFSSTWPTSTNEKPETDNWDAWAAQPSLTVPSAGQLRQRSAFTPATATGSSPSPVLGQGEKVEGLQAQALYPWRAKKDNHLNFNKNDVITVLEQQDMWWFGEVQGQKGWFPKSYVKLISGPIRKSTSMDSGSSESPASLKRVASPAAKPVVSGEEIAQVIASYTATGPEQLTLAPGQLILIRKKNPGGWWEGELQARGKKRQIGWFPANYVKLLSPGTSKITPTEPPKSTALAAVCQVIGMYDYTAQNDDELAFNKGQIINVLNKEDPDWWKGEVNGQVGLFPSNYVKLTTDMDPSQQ

[6] = biological target: T2, SH3P9, a novel human gene (human, UniProt O00499 44-593); assay: as above
T2 construct: Protein encoded by a cDNA clone from a lambda gt11 or gt22a human library, on plaque-lift filters; The vector fusion partner is not described; also called human homolog of SH3P9
T2 sequence: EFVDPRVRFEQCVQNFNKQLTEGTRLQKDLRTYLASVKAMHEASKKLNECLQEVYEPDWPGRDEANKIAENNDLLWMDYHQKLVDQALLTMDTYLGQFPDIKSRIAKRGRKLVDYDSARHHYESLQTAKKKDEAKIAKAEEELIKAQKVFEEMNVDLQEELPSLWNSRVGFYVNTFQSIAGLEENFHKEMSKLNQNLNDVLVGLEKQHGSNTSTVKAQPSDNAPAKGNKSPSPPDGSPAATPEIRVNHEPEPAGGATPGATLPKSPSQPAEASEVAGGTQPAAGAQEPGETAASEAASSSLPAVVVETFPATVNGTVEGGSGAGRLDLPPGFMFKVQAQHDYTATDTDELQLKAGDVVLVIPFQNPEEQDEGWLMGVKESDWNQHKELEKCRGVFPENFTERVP

[7] = biological target: T3, SH3P14, human H74 (human, UniProt Q9UNF0 118-486, limits assumed); assay: as above
T3 construct: Protein encoded by a cDNA clone from a lambda gt11 or gt22a human library, on plaque-lift filters
T3 sequence: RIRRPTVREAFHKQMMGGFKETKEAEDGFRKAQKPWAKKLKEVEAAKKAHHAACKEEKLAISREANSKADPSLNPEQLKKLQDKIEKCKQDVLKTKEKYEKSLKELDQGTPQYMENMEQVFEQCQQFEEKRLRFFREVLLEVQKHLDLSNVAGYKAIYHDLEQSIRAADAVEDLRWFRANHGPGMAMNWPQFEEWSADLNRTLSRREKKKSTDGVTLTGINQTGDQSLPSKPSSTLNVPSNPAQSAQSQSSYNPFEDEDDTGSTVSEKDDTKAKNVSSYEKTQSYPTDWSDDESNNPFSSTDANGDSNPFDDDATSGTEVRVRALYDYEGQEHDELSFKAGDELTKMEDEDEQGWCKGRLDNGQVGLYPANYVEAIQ

[8] = biological target: T4, SH3P18, a novel human gene (human, UniProt Q9NZM3 952-1192); assay: as above
T4 construct: Fragment encoded by a cDNA clone, with at least three SH3 domains, on plaque-lift filters
T4 sequence: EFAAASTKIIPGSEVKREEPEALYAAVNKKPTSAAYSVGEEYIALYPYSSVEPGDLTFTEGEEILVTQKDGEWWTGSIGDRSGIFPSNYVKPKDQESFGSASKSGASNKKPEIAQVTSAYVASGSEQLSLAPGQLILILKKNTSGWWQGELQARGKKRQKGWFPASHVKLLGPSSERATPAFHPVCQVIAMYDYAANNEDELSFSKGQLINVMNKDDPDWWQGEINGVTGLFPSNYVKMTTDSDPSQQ

Molecule: O=c1[nH]c(=O)n([C@@H]2O[C@H](CO)[C@@H](O)[C@@H]2F)cc1I [FIAU]
effectiveness against the virus that causes hepatitis B [1]: effective
suspected toxic side effects [2]: liver failure in certain patients

Molecule: Biotin-SRPPRWSPPPVPLPTSLDSR-NH2 [PXXP.ABL.G1/2M]
binding to the SH3 domain of Abl [3]: bind

Molecule: Biotin-SRSLSEVSPKPPIRSVSLSR-NH2 [PXXP.NCK.S1/4]
binding to the SH3 domain of Nck [4]: bind

binding result [5]: binds
binding result [6]: binds
binding result [7]: binds
binding result [8]: binds
B1: T12SRC.1 (biotin-GILAPPVPPRNTR-NH2) (peptide)
peptide: Biotin-GILAPPVPPRNTR-NH2
SMILES: CC[C@H](C)[C@H](NC(=O)CNC(=O)CCCC[C@@H]1SC[C@@H]2NC(=O)N[C@@H]21)C(=O)N[C@@H](CC(C)C)C(=O)N[C@@H](C)C(=O)N1CCC[C@H]1C(=O)N1CCC[C@H]1C(=O)N[C@H](C(=O)N1CCC[C@H]1C(=O)N1CCC[C@H]1C(=O)N[C@@H](CCCNC(=N)N)C(=O)N[C@@H](CC(N)=O)C(=O)N[C@H](C(=O)N[C@@H](CCCNC(=N)N)C(N)=O)[C@@H](C)O)C(C)C
notes: Used complexed with streptavidin-alkaline phosphatase; also called variant of the pSrcCII peptide
